# Laboratory results published in patent US11197933B2, “Polysubunit opioid prodrugs resistant to overdose and abuse” (Elysium Therapeutics, Inc., priority 2017, dated 2021).
# Key:
# trypsin [1] = molecular target: T1, trypsin (Bos taurus, UniProt P00760); assay: Trypsin inhibitory potency (key differentiating attributes, Table 5); type: biochemical
# T1 construct: gene PRSS1
# T1 sequence (P00760 24-246): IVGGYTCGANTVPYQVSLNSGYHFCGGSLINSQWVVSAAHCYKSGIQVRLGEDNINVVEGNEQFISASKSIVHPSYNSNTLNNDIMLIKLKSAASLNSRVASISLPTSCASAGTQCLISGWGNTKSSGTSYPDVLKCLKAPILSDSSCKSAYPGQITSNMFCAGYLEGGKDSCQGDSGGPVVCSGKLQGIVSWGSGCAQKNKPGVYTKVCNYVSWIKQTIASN
# Source text: (§1) As mentioned previously, a wide range of targeted oral pharmacokinetic profiles can be achieved by administering pharmaceutical compositions containing specific combinations of different polysubunit molecules to subjects. For example, the different polysubunit molecules contained in the composition may differ with regard to (i) the specific opioid agonists delivered, (ii) the rates at which the opioid agonist is delivered in vivo (i.e. to modify the oral pharmacokinetic profile of the delivered opioid), and (iii) the combined inhibitory potency of the GI enzyme inhibiting subunits [i.e. to modify the overdose protection profile and/or the prescribed dose strengths of the delivered opioid agonist(s)]. Table 5 below provides non-limiting examples of compounds of the invention with their key differentiating attributes. Table 6 discusses scenarios and rationales for using the compounds presented in Table 5 in combination with each other, in useful pharmaceutical formulations of the invention.
# [2] = Rate of release of opioid agonist (key differentiating attributes, Table 5); settings: for Rate of Release of Opioid Against: in words (Fast/Slow); for half-life: read-out: Rate of Release of Opioid Against: T1/2
# Source text: as §1
# trypsin [3] = molecular target: T1, trypsin; assay: Inhibition of trypsin-catalyzed hydrolysis of BANA (percent BANA remaining vs. time); type: biochemical; settings: pH 7.4, 37° C.; for Ability to inhibit trypsin (result in words): increasing concentrations, BANA substrate
# Experimental: This example describes in vitro experiments with a compound of the disclosure to provide a mechanism of overdose protection.
# The effect of increasing concentrations of compounds II-D-11, II-D-23, II-D-71c and II-D-71b on the rate and extent of the trypsin-catalyzed hydrolysis of a commercially available trypsin substrate Nα-Benzoyl-L-arginine 4-nitroanilide hydrochloride (BANA) was evaluated in the presence of trypsin (2,000 BAEE activity) in a pH 7.4 phosphate buffer at 37° C. in vitro. Both buffer solution alone (i.e. no trypsin) and trypsin containing buffer solution (i.e. no test compounds) controls were run contemporaneously.
# [4] = Hydrocodone and naltrexone release from II-D-71c-NTX in 0.5M aqueous NaOH at 60° C. (tampering); type: physicochemical; settings: for Percent HC Released / Percent NTX Released: 60° C. incubation in 0.5M aqueous NaOH
# Experimental: H-D-71c-NTX was incubated in a strongly basic solution of 0.5M aqueous sodium hydroxide at 60° C. for 300 minutes. The solution was analyzed for the presence of both hydrocodone and naltrexone at specified time points using LC/MS analysis. […] The data from this study is presented graphically in FIG. 2.
compound,measurement,setting,value
COc1ccc2c3c1OC1C(OC(=O)N(C)C(CNC(=O)[C@H](CCCNC(=N)N)NC(=O)CNC(C)=O)C(=O)NCCCC[C@H](NC(=O)OCc4ccccc4)C(=O)NCCOc4ccc(C(=O)Oc5cccc(NC(=N)N)c5)cc4)=CC[C@H]4[C@@H](C2)N(C)CC[C@]314 (stereo partly shown) [II-J-71b],Trypsin Inhibitory Potency,trypsin [1],Low
same,Rate of Release of Opioid Against,[2],Slow
same,half-life,[2],~3 h
COc1ccc2c3c1OC1C(OC(=O)N(C)C(CNC(=O)[C@H](CCCNC(=N)N)NC(=O)CNC(C)=O)C(=O)NCCCC[C@H](NC(=O)OCc4ccccc4)C(=O)NCCOc4ccc(C(=O)Oc5ccc(NC(=N)N)cc5)cc4)=CC[C@H]4[C@@H](C2)N(C)CC[C@]314 (stereo partly shown) [II-J-71c],Trypsin Inhibitory Potency,trypsin [1],High
same,Rate of Release of Opioid Against,[2],Slow
same,half-life,[2],~3 h
COc1ccc2c3c1OC1C(OC(=O)N4CCC(C(=O)NCCCCC(NC(=O)OCc5ccccc5)C(=O)NCCOc5ccc(C(=O)Oc6ccc7cc(C(=N)N)ccc7c6)cc5)CC4CNC(=O)C(CCCNC(=N)N)NC(=O)CNC(C)=O)=CCC4C(C2)N(C)CCC314 [II-D-23],Percent BANA remaining,"trypsin [3]; 1 uM compound, 2 minutes",100%
same,Percent BANA remaining,"trypsin [3]; 1 uM compound, 14 minutes",20%
same,Percent BANA remaining,"trypsin [3]; 1 uM compound, 24 minutes",11%
same,Percent BANA remaining,"trypsin [3]; 1 uM compound, 32 minutes",0%
same,Percent BANA remaining,"trypsin [3]; 1 uM compound, 70 minutes",0%
same,Percent BANA remaining,"trypsin [3]; 1 uM compound, 100 minutes",0%
same,Percent BANA remaining,"trypsin [3]; 1 uM compound, 145 minutes",0%
same,Percent BANA remaining,"trypsin [3]; 1 uM compound, 156 minutes",0%
same,Percent BANA remaining,"trypsin [3]; 1 uM compound, 247 minutes",0%
same,Percent BANA remaining,"trypsin [3]; 10 uM compound, 2 minutes",100%
same,Percent BANA remaining,"trypsin [3]; 10 uM compound, 14 minutes",98%
same,Percent BANA remaining,"trypsin [3]; 10 uM compound, 24 minutes",96%
same,Percent BANA remaining,"trypsin [3]; 10 uM compound, 32 minutes",98%
same,Percent BANA remaining,"trypsin [3]; 10 uM compound, 70 minutes",97%
same,Percent BANA remaining,"trypsin [3]; 10 uM compound, 100 minutes",95%
same,Percent BANA remaining,"trypsin [3]; 10 uM compound, 145 minutes",96%
same,Percent BANA remaining,"trypsin [3]; 10 uM compound, 156 minutes",96%
same,Percent BANA remaining,"trypsin [3]; 10 uM compound, 247 minutes",93%
same,Percent BANA remaining,"trypsin [3]; 100 uM compound, 2 minutes",100%
same,Percent BANA remaining,"trypsin [3]; 100 uM compound, 14 minutes",99%
same,Percent BANA remaining,"trypsin [3]; 100 uM compound, 24 minutes",100%
same,Percent BANA remaining,"trypsin [3]; 100 uM compound, 32 minutes",100%
same,Percent BANA remaining,"trypsin [3]; 100 uM compound, 70 minutes",100%
same,Percent BANA remaining,"trypsin [3]; 100 uM compound, 100 minutes",100%
same,Percent BANA remaining,"trypsin [3]; 100 uM compound, 145 minutes",100%
same,Percent BANA remaining,"trypsin [3]; 100 uM compound, 156 minutes",100%
same,Percent BANA remaining,"trypsin [3]; 100 uM compound, 247 minutes",100%
same,Percent BANA remaining,"trypsin [3]; 1 mM compound, 2 minutes",100%
same,Percent BANA remaining,"trypsin [3]; 1 mM compound, 14 minutes",99%
same,Percent BANA remaining,"trypsin [3]; 1 mM compound, 24 minutes",98%
same,Percent BANA remaining,"trypsin [3]; 1 mM compound, 32 minutes",99%
same,Percent BANA remaining,"trypsin [3]; 1 mM compound, 70 minutes",99%
same,Percent BANA remaining,"trypsin [3]; 1 mM compound, 100 minutes",98%
same,Percent BANA remaining,"trypsin [3]; 1 mM compound, 145 minutes",98%
same,Percent BANA remaining,"trypsin [3]; 1 mM compound, 156 minutes",97%
same,Percent BANA remaining,"trypsin [3]; 1 mM compound, 247 minutes",96%
same,Ability to inhibit trypsin (result in words),trypsin [3],progressively inhibit trypsin in a concentration dependent manner
COc1ccc2c3c1OC1C(OC(=O)N4CCC(C(=O)NCCCCC(NC(C)=O)C(=O)NCCOc5ccc(C(=O)Oc6ccc7cc(C(=N)N)ccc7c6)cc5)CC4CNC(=O)C(CCCNC(=N)N)NC(=O)CNC(C)=O)=CCC4C(C2)N(C)CCC314 [II-D-11],Percent BANA remaining,"trypsin [3]; 1 uM compound, 2 minutes",100%
same,Percent BANA remaining,"trypsin [3]; 1 uM compound, 13 minutes",39%
same,Percent BANA remaining,"trypsin [3]; 1 uM compound, 24 minutes",0%
same,Percent BANA remaining,"trypsin [3]; 1 uM compound, 80 minutes",0%
same,Percent BANA remaining,"trypsin [3]; 1 uM compound, 102 minutes",0%
same,Percent BANA remaining,"trypsin [3]; 1 uM compound, 119 minutes",0%
same,Percent BANA remaining,"trypsin [3]; 1 uM compound, 234 minutes",0%
same,Percent BANA remaining,"trypsin [3]; 10 uM compound, 2 minutes",100%
same,Percent BANA remaining,"trypsin [3]; 10 uM compound, 13 minutes",98%
same,Percent BANA remaining,"trypsin [3]; 10 uM compound, 24 minutes",96%
same,Percent BANA remaining,"trypsin [3]; 10 uM compound, 80 minutes",94%
same,Percent BANA remaining,"trypsin [3]; 10 uM compound, 102 minutes",93%
same,Percent BANA remaining,"trypsin [3]; 10 uM compound, 119 minutes",94%
same,Percent BANA remaining,"trypsin [3]; 10 uM compound, 234 minutes",87%
same,Percent BANA remaining,"trypsin [3]; 100 uM compound, 2 minutes",100%
same,Percent BANA remaining,"trypsin [3]; 100 uM compound, 13 minutes",98%
same,Percent BANA remaining,"trypsin [3]; 100 uM compound, 24 minutes",100%
same,Percent BANA remaining,"trypsin [3]; 100 uM compound, 80 minutes",99%
same,Percent BANA remaining,"trypsin [3]; 100 uM compound, 102 minutes",99%
same,Percent BANA remaining,"trypsin [3]; 100 uM compound, 119 minutes",99%
same,Percent BANA remaining,"trypsin [3]; 100 uM compound, 234 minutes",99%
same,Percent BANA remaining,"trypsin [3]; 1 mM compound, 2 minutes",100%
same,Percent BANA remaining,"trypsin [3]; 1 mM compound, 13 minutes",100%
same,Percent BANA remaining,"trypsin [3]; 1 mM compound, 24 minutes",99%
same,Percent BANA remaining,"trypsin [3]; 1 mM compound, 80 minutes",100%
same,Percent BANA remaining,"trypsin [3]; 1 mM compound, 102 minutes",100%
same,Percent BANA remaining,"trypsin [3]; 1 mM compound, 119 minutes",100%
same,Percent BANA remaining,"trypsin [3]; 1 mM compound, 234 minutes",100%
same,Ability to inhibit trypsin (result in words),trypsin [3],progressively inhibit trypsin in a concentration dependent manner
COc1ccc2c3c1O[C@H]1C(OC(=O)N4CCC(C(=O)NCCCC[C@H](NC(=O)CCCN(C)C(=O)Oc5ccc6c7c5O[C@H]5C(=O)CC[C@@]8(O)[C@@H](C6)N(CC6CC6)CC[C@]758)C(=O)NCCNC(=O)Cc5ccc(OC(=O)c6ccc(NC(=N)N)cc6)cc5)CC4CNC(=O)[C@@H](CCCNC(=N)N)NC(=O)CNC(C)=O)=CC[C@H]4[C@@H](C2)N(C)CC[C@]314.O=C(O)C(F)(F)F.O=C(O)C(F)(F)F.O=C(O)C(F)(F)F.O=C(O)C(F)(F)F (stereo partly drawn) [II-D-71c-NTX],Release of hydrocodone and naltrexone on tampering (result in words),"[4]; 0.5M aqueous sodium hydroxide, 60° C., 300 minutes, LC/MS",release of the opioid agonist (e.g. hydrocodone) occurs concomitantly with the release of the opioid antagonist
same,Percent HC Released,[4]; time 0 (minutes),0%
same,Percent NTX Released,[4]; time 0 (minutes),0%
same,Percent HC Released,[4]; time 5 (minutes),2.52%
same,Percent NTX Released,[4]; time 5 (minutes),1.44%
same,Percent HC Released,[4]; time 10 (minutes),4.45%
same,Percent NTX Released,[4]; time 10 (minutes),2.0%
same,Percent HC Released,[4]; time 15 (minutes),6.27%
same,Percent NTX Released,[4]; time 15 (minutes),2.95%
same,Percent HC Released,[4]; time 20 (minutes),9.27%
same,Percent NTX Released,[4]; time 20 (minutes),3.69%
same,Percent HC Released,[4]; time 30 (minutes),13.99%
same,Percent NTX Released,[4]; time 30 (minutes),6.47%
same,Percent HC Released,[4]; time 60 (minutes),25.32%
same,Percent NTX Released,[4]; time 60 (minutes),14.41%
same,Percent HC Released,[4]; time 120 (minutes),37.9%
same,Percent NTX Released,[4]; time 120 (minutes),37.81%
same,Percent HC Released,[4]; time 300 (minutes),56.1%
same,Percent NTX Released,[4]; time 300 (minutes),60.25%
